According to the supplement of paper PMC10307832:

Legend:
Assay in all cases: relative viability (nuclei count vs DMSO), 5 days (fraction); higher = more cells survive
NCI-H1437 = settings: first compound 8 µM
In short: (§1)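 Lung cancer cell lines were pin-tool dosed in 1536-well plates on the day after seeding, with either a lone drug or a fixed anchor-drug dose plus five library-drug doses (not always all listed) in √10 steps. Nuclei were counted on 4× images after 5 days. Relative viability is the ratio of treated-well to vehicle-well nuclei counts, with each value a median of duplicate plates.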

NCI-H1650 = system: NCI-H1650
In short: as §1

NCI-H1666 = system: NCI-H1666
In short: as §1

NCI-H1792 = system: NCI-H1792
In short: as §1

NCI-H1975 = system: NCI-H1975
In short: as §1

NCI-H23 = system: NCI-H23
In short: as §1

NCI-H358 = system: NCI-H358
In short: as §1

NCI-H596 = system: NCI-H596
In short: as §1

NCI-H650 = system: NCI-H650
In short: as §1

NCI-H838 = system: NCI-H838
In short: as §1

SK-MES-1 = system: SK-MES-1
In short: as §1

O=c1cc(-c2cccc3c2Sc2ccccc2S3)oc(N2CCOCC2)c1 + CS(=O)(=O)CCNCc1ccc(-c2ccc3ncnc(Nc4ccc(OCc5cccc(F)c5)c(Cl)c4)c3c2)o1 [Lapatinib] (partner 2 µM) was tested, and the relative viability (NCI-H1437) was 1, the relative viability (NCI-H1650; first compound 0.08 µM) was 0.687 and the relative viability (NCI-H1650; first compound 0.253 µM) was 0.917. It also gave a relative viability (NCI-H1650; first compound 0.8 µM) of 0.717, a relative viability (NCI-H1650; first compound 2.53 µM) of 0.84 and a relative viability (NCI-H1650; first compound 8 µM) of 0.847. The relative viability (NCI-H1666; first compound 0.08 µM) was 0.533, the relative viability (NCI-H1666; first compound 0.253 µM) was 0.781 and the relative viability (NCI-H1666; first compound 0.8 µM) was 0.485. It also gave a relative viability (NCI-H1666; first compound 2.53 µM) of 0.652, a relative viability (NCI-H1666; first compound 8 µM) of 0.573 and a relative viability (NCI-H1792; first compound 0.253 µM) of 1. It also gave a relative viability (NCI-H1792; first compound 0.8 µM) of 0.824, a relative viability (NCI-H1792; first compound 2.53 µM) of 0.83 and a relative viability (NCI-H1792; first compound 8 µM) of 1.58. The relative viability (NCI-H1975; first compound 0.08 µM) was 0.827, the relative viability (NCI-H1975; first compound 0.253 µM) was 1.06 and the relative viability (NCI-H1975; first compound 0.8 µM) was 0.894. For the same molecule, the relative viability (NCI-H1975; first compound 2.53 µM) was 0.794, the relative viability (NCI-H1975; first compound 8 µM) was 0.973 and the relative viability (NCI-H23; first compound 0.08 µM) was 1.1. For the same molecule, the relative viability (NCI-H23; first compound 0.253 µM) was 1.34, the relative viability (NCI-H23; first compound 0.8 µM) was 1.14 and the relative viability (NCI-H23; first compound 2.53 µM) was 0.868. For the same molecule, the relative viability (NCI-H23; first compound 8 µM) was 1.17, the relative viability (NCI-H358; first compound 0.08 µM) was 0.407 and the relative viability (NCI-H358; first compound 0.253 µM) was 0.392. It also gave a relative viability (NCI-H358; first compound 0.8 µM) of 0.42, a relative viability (NCI-H358; first compound 2.53 µM) of 0.424 and a relative viability (NCI-H358; first compound 8 µM) of 0.467. For the same molecule, the relative viability (NCI-H596; first compound 0.08 µM) was 1.06, the relative viability (NCI-H596; first compound 0.253 µM) was 1.06 and the relative viability (NCI-H596; first compound 0.8 µM) was 0.95. It also gave a relative viability (NCI-H596; first compound 2.53 µM) of 0.894, a relative viability (NCI-H596; first compound 8 µM) of 1.22 and a relative viability (NCI-H650; first compound 0.08 µM) of 0.819. For the same molecule, the relative viability (NCI-H650; first compound 0.253 µM) was 0.84, the relative viability (NCI-H650; first compound 0.8 µM) was 1.16 and the relative viability (NCI-H650; first compound 2.53 µM) was 0.706. It also gave a relative viability (NCI-H650; first compound 8 µM) of 0.842, a relative viability (NCI-H838; first compound 0.08 µM) of 0.973 and a relative viability (NCI-H838; first compound 0.253 µM) of 1.36. For the same molecule, the relative viability (NCI-H838; first compound 0.8 µM) was 0.844, the relative viability (NCI-H838; first compound 2.53 µM) was 0.969 and the relative viability (NCI-H838; first compound 8 µM) was 0.953. The relative viability (SK-MES-1; first compound 0.08 µM) was 0.487, the relative viability (SK-MES-1; first compound 0.253 µM) was 0.562 and the relative viability (SK-MES-1; first compound 0.8 µM) was 0.445. For the same molecule, the relative viability (SK-MES-1; first compound 2.53 µM) was 0.483 and the relative viability (SK-MES-1; first compound 8 µM) was 0.439.
